Source: patent US20020137929A1, “1 - (3-heterocyclylphenyl) isothiourea, -isourea, -guanidine and -amidine herbicidal agents” (Intellectual Property Department, BASF Aktiengesellschaft, priority 1998, published 2002)

What was measured:
GALAP (Galium) [1] = experiment: Preemergence herbicidal evaluation; format: in vivo, Galium aparine; settings: rated 4-5 weeks after treatment
Method in brief: (§1)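 Test compound, dissolved in aqueous acetone, was sprayed over planted soil cups at an equivalent of about 0.0156 to 0.500 kg/ha; seeds had been mixed with potting soil. Greenhouse growth followed, with visual 0-9 scoring of injury at four to five weeks.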

CASOB (Sicklepod) [2] = experiment: Preemergence herbicidal evaluation; format: in vivo, Cassia obtusifolia; settings: rated 4-5 weeks after treatment
Method in brief: as §1

[3] = tested on: GLXMAW (Soybean, Williams); experiment: Postemergence herbicidal evaluation; format: in vivo, Glycine max, (L.) Merr. cv Williams
Method in brief: (§2)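 Scores (0–9) reflect plant stand, vigor, malformation, size, chlorosis and general appearance relative to control, read 4 to 5 weeks after treatment and averaged where tests were repeated. Application: about 0.0156–0.500 kg/ha sprayed at 40 psi onto two-week seedlings.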

ORYSAT (Rice, Tebonnet) = experiment: Postemergence herbicidal evaluation; format: in vivo, Oryza sativa, (L.) Tebonnet
Method in brief: as §2

SETVI (Foxtail, Green) = experiment: Postemergence herbicidal evaluation; format: in vivo, Setaria viridis
Method in brief: as §2

CYPSE (Flatsedge) [4] = experiment: Postemergence weed control under flooded paddy conditions; format: in vivo, Cyperus serotinus; settings: postemergence weeds, 3-4 weeks after treatment
Method in brief: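 Herbicidal effect is judged by eye on a 0–9 scale versus control, 3–4 weeks after dosing. Dosing is into flood water kept 1.5–3 cm over the soil, at about 0.0313–0.500 kg/ha in aqueous/acetone 50/50 v/v, on 3–5 cm weeds and 1.5–2.5-leaf rice seedlings.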

CYPIR (Rice Flatsedge) = experiment: Preemergence weed control under flooded paddy conditions; format: in vivo, Cyperus iria; settings: rated 3-4 weeks after treatment
Method in brief: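 Herbicidal effect is scored visually on a 0-9 scale against an untreated control, three to four weeks after compounds are pipetted into the flood water (1.5 to 3 cm deep) over seeds planted in silt loam at 0.5 cm depth. Rates: about 0.0313 to 0.500 kg/ha.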

ZEAMX (Corn, Field) = experiment: Preemergence herbicidal evaluation; format: in vivo, Zea mays; settings: rated 4-5 weeks after treatment
Method in brief: as §1

AMBEL (Ragweed, Common) = experiment: Postemergence herbicidal evaluation; format: in vivo, Ambrosia artemisifolia
Method in brief: as §2

ECHCG (Barnyardgrass) = experiment: Postemergence herbicidal evaluation; format: in vivo, Echinochloa crus-galli
Method in brief: as §2

[5] = tested on: SAGPY (Arrowhead (Pygmaea)); experiment: Preemergence weed control under flooded paddy conditions; format: in vivo, Sagittaria pygmaea; settings: rated 3-4 weeks after treatment
Method in brief: (§3)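 Flooded-pot preemergence screen with silt loam and seeds in the upper 0.5 cm. Dose about 0.0313 to 0.500 kg/ha, delivered into flood water; visual 0-9 score after 3 to 4 weeks.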

GALAP (Galium) [6] = experiment: Postemergence herbicidal evaluation; format: in vivo, Galium aparine
Method in brief: as §2

[7] = tested on: CHEAL (Lambsquarters, Common); experiment: Postemergence herbicidal evaluation; format: in vivo, Chenopodium album
Method in brief: as §2

CYPSE (Flatsedge) [8] = experiment: Preemergence weed control under flooded paddy conditions; format: in vivo, Cyperus serotinus; settings: rated 3-4 weeks after treatment
Method in brief: as §3

CASOB (Sicklepod) [9] = experiment: Postemergence herbicidal evaluation; format: in vivo, Cassia obtusifolia
Method in brief: as §2

CCOC(=O)CN1C(=O)C(CCO)S/C1=N/c1cc(-n2c(=O)cc(C(F)(F)F)n(C)c2=O)c(F)cc1Cl (stereo not shown) [Compound 49, Ethyl 2-{{2-chloro-5-[3,6-dihydro-3-methyl-2,6-dioxo-4-(trifluoromethyl)-1(2H)-pyrimidinyl]-4-fluorophenyl}imino}-5-(hydroxyethyl)-4-oxo-3-thiazolidineacetate]
Preemergence herbicidal rating GALAP (GALAP (Galium) [1]; rate 0.0156 kg/ha): 0.0 | Preemergence herbicidal rating GALAP (GALAP (Galium) [1]; rate 0.0313 kg/ha): 0.0 | Preemergence herbicidal rating GALAP (GALAP (Galium) [1]; rate 0.0625 kg/ha): 7.0 | Preemergence herbicidal rating GALAP (GALAP (Galium) [1]; rate 0.1250 kg/ha): 7.0 | Preemergence herbicidal rating GALAP (GALAP (Galium) [1]; rate 0.2500 kg/ha): 9.0 | Preemergence herbicidal rating CASOB (CASOB (Sicklepod) [2]; rate 0.0156 kg/ha): 0.0 | Preemergence herbicidal rating CASOB (CASOB (Sicklepod) [2]; rate 0.0313 kg/ha): 3.0 | Preemergence herbicidal rating CASOB (CASOB (Sicklepod) [2]; rate 0.1250 kg/ha): 3.0 | Preemergence herbicidal rating CASOB (CASOB (Sicklepod) [2]; rate 0.2500 kg/ha): 9.0 | Postemergence herbicidal rating GLXMAW ([3]; Rate 0.0313 kg/ha): 7.5 | Postemergence herbicidal rating GLXMAW ([3]; Rate 0.0625 kg/ha): 8.0 | Postemergence herbicidal rating GLXMAW ([3]; rate 0.0156 kg/ha): 7.5 | Postemergence herbicidal rating ORYSAT (ORYSAT (Rice, Tebonnet); Rate 0.0313 kg/ha): 2.5 | Postemergence herbicidal rating ORYSAT (ORYSAT (Rice, Tebonnet); Rate 0.0625 kg/ha): 3.0 | Postemergence herbicidal rating ORYSAT (ORYSAT (Rice, Tebonnet); rate 0.0156 kg/ha): 1.0 | Postemergence herbicidal rating SETVI (SETVI (Foxtail, Green); Rate 0.0313 kg/ha): 4.0 | Postemergence herbicidal rating SETVI (SETVI (Foxtail, Green); Rate 0.0625 kg/ha): 7.0 | Postemergence herbicidal rating SETVI (SETVI (Foxtail, Green); rate 0.0156 kg/ha): 3.0 | Herbicidal rating CYPSE (CYPSE (Flatsedge) [4]; rate 0.0313 kg/ha): 2.0 | Herbicidal rating CYPSE (CYPSE (Flatsedge) [4]; rate 0.0625 kg/ha): 3.0 | Herbicidal rating CYPSE (CYPSE (Flatsedge) [4]; rate 0.2500 kg/ha): 4.0 | Herbicidal rating CYPIR (CYPIR (Rice Flatsedge); 0.0313 kg/ha): 0.0 | Herbicidal rating CYPIR (CYPIR (Rice Flatsedge); 0.0625 kg/ha): 0.0 | Herbicidal rating CYPIR (CYPIR (Rice Flatsedge); 0.1250 kg/ha): 2.0 | Herbicidal rating CYPIR (CYPIR (Rice Flatsedge); 0.2500 kg/ha): 7.0 | Preemergence herbicidal rating ZEAMX (ZEAMX (Corn, Field); rate 0.0156 kg/ha): 0.0 | Preemergence herbicidal rating ZEAMX (ZEAMX (Corn, Field); rate 0.0313 kg/ha): 0.0 | Preemergence herbicidal rating ZEAMX (ZEAMX (Corn, Field); rate 0.0625 kg/ha): 0.0 | Preemergence herbicidal rating ZEAMX (ZEAMX (Corn, Field); rate 0.1250 kg/ha): 3.0 | Preemergence herbicidal rating ZEAMX (ZEAMX (Corn, Field); rate 0.2500 kg/ha): 3.0 | Postemergence herbicidal rating AMBEL (AMBEL (Ragweed, Common); Rate 0.0313 kg/ha): 9.0 | Postemergence herbicidal rating AMBEL (AMBEL (Ragweed, Common); Rate 0.0625 kg/ha): 9.0 | Postemergence herbicidal rating AMBEL (AMBEL (Ragweed, Common); rate 0.0156 kg/ha): 9.0 | Postemergence herbicidal rating ECHCG (ECHCG (Barnyardgrass); Rate 0.0313 kg/ha): 0.0 | Postemergence herbicidal rating ECHCG (ECHCG (Barnyardgrass); Rate 0.0625 kg/ha): 0.0 | Postemergence herbicidal rating ECHCG (ECHCG (Barnyardgrass); rate 0.0156 kg/ha): 0.0 | Herbicidal rating SAGPY ([5]; 0.0313 kg/ha): 2.0 | Herbicidal rating SAGPY ([5]; 0.0625 kg/ha): 4.0 | Herbicidal rating SAGPY ([5]; 0.1250 kg/ha): 6.0 | Herbicidal rating SAGPY ([5]; 0.2500 kg/ha): 7.0 | Postemergence herbicidal rating GALAP (GALAP (Galium) [6]; Rate 0.0313 kg/ha): 4.0 | Postemergence herbicidal rating GALAP (GALAP (Galium) [6]; Rate 0.0625 kg/ha): 4.0 | Postemergence herbicidal rating GALAP (GALAP (Galium) [6]; rate 0.0156 kg/ha): 2.0 | Postemergence herbicidal rating CHEAL ([7]; Rate 0.0313 kg/ha): 9.0 | Postemergence herbicidal rating CHEAL ([7]; Rate 0.0625 kg/ha): 9.0 | Postemergence herbicidal rating CHEAL ([7]; rate 0.0156 kg/ha): 9.0 | Herbicidal rating CYPSE (CYPSE (Flatsedge) [8]; 0.0313 kg/ha): 2.0 | Herbicidal rating CYPSE (CYPSE (Flatsedge) [8]; 0.0625 kg/ha): 3.0 | Herbicidal rating CYPSE (CYPSE (Flatsedge) [8]; 0.2500 kg/ha): 4.0 | Postemergence herbicidal rating CASOB (CASOB (Sicklepod) [9]; Rate 0.0313 kg/ha): 3.0 | Postemergence herbicidal rating CASOB (CASOB (Sicklepod) [9]; Rate 0.0625 kg/ha): 3.0 | Postemergence herbicidal rating CASOB (CASOB (Sicklepod) [9]; rate 0.0156 kg/ha): 2.0

C[C@@H](C(=O)O)N1C(=O)CS/C1=N/c1cc(-n2c(=O)cc(C(F)(F)F)n(C)c2=O)c(F)cc1Cl [Compound 51, 2-{{2-Chloro-5-[3,6-dihydro-3-methyl-2,6-dioxo-4-(trifluoromethyl)-1(2H)-pyrimidinyl]-4-fluoro-phenyl}imino}-α-methyl-4-oxo-3-thiazolidineacetic acid, L-]
Preemergence herbicidal rating GALAP (GALAP (Galium) [1]; rate 0.0156 kg/ha): 0.0 | Preemergence herbicidal rating GALAP (GALAP (Galium) [1]; rate 0.0313 kg/ha): 0.0 | Preemergence herbicidal rating GALAP (GALAP (Galium) [1]; rate 0.0625 kg/ha): 5.0 | Preemergence herbicidal rating GALAP (GALAP (Galium) [1]; rate 0.1250 kg/ha): 7.0 | Preemergence herbicidal rating GALAP (GALAP (Galium) [1]; rate 0.2500 kg/ha): 9.0 | Preemergence herbicidal rating CASOB (CASOB (Sicklepod) [2]; rate 0.0156 kg/ha): 0.0 | Preemergence herbicidal rating CASOB (CASOB (Sicklepod) [2]; rate 0.0313 kg/ha): 0.0 | Preemergence herbicidal rating CASOB (CASOB (Sicklepod) [2]; rate 0.0625 kg/ha): 0.0 | Preemergence herbicidal rating CASOB (CASOB (Sicklepod) [2]; rate 0.1250 kg/ha): 1.0 | Preemergence herbicidal rating CASOB (CASOB (Sicklepod) [2]; rate 0.2500 kg/ha): 1.0 | Postemergence herbicidal rating GLXMAW ([3]; Rate 0.0158 kg/ha): 6.0 | Postemergence herbicidal rating GLXMAW ([3]; Rate 0.0315 kg/ha): 8.0 | Postemergence herbicidal rating GLXMAW ([3]; Rate 0.0630 kg/ha): 8.0 | Postemergence herbicidal rating ORYSAT (ORYSAT (Rice, Tebonnet); Rate 0.0158 kg/ha): 2.0 | Postemergence herbicidal rating ORYSAT (ORYSAT (Rice, Tebonnet); Rate 0.0315 kg/ha): 3.5 | Postemergence herbicidal rating ORYSAT (ORYSAT (Rice, Tebonnet); Rate 0.0630 kg/ha): 4.0 | Postemergence herbicidal rating SETVI (SETVI (Foxtail, Green); Rate 0.0158 kg/ha): 7.0 | Postemergence herbicidal rating SETVI (SETVI (Foxtail, Green); Rate 0.0315 kg/ha): 9.0 | Postemergence herbicidal rating SETVI (SETVI (Foxtail, Green); Rate 0.0630 kg/ha): 9.0 | Herbicidal rating CYPSE (CYPSE (Flatsedge) [4]; rate 0.0625 kg/ha): 0.0 | Herbicidal rating CYPSE (CYPSE (Flatsedge) [4]; rate 0.1250 kg/ha): 0.0 | Herbicidal rating CYPSE (CYPSE (Flatsedge) [4]; rate 0.2500 kg/ha): 0.0 | Herbicidal rating CYPIR (CYPIR (Rice Flatsedge); 0.0625 kg/ha): 2.0 | Herbicidal rating CYPIR (CYPIR (Rice Flatsedge); 0.1250 kg/ha): 3.0 | Herbicidal rating CYPIR (CYPIR (Rice Flatsedge); 0.2500 kg/ha): 6.0 | Preemergence herbicidal rating ZEAMX (ZEAMX (Corn, Field); rate 0.0156 kg/ha): 1.0 | Preemergence herbicidal rating ZEAMX (ZEAMX (Corn, Field); rate 0.0313 kg/ha): 1.0 | Preemergence herbicidal rating ZEAMX (ZEAMX (Corn, Field); rate 0.0625 kg/ha): 1.0 | Preemergence herbicidal rating ZEAMX (ZEAMX (Corn, Field); rate 0.1250 kg/ha): 2.0 | Preemergence herbicidal rating ZEAMX (ZEAMX (Corn, Field); rate 0.2500 kg/ha): 6.0 | Postemergence herbicidal rating AMBEL (AMBEL (Ragweed, Common); Rate 0.0158 kg/ha): 6.0 | Postemergence herbicidal rating AMBEL (AMBEL (Ragweed, Common); Rate 0.0315 kg/ha): 6.0 | Postemergence herbicidal rating AMBEL (AMBEL (Ragweed, Common); Rate 0.0630 kg/ha): 9.0 | Postemergence herbicidal rating ECHCG (ECHCG (Barnyardgrass); Rate 0.0158 kg/ha): 4.0 | Postemergence herbicidal rating ECHCG (ECHCG (Barnyardgrass); Rate 0.0315 kg/ha): 5.0 | Postemergence herbicidal rating ECHCG (ECHCG (Barnyardgrass); Rate 0.0630 kg/ha): 9.0 | Herbicidal rating SAGPY ([5]; 0.0625 kg/ha): 0.0 | Herbicidal rating SAGPY ([5]; 0.1250 kg/ha): 0.0 | Herbicidal rating SAGPY ([5]; 0.2500 kg/ha): 0.0 | Postemergence herbicidal rating GALAP (GALAP (Galium) [6]; Rate 0.0158 kg/ha): 4.0 | Postemergence herbicidal rating GALAP (GALAP (Galium) [6]; Rate 0.0315 kg/ha): 9.0 | Postemergence herbicidal rating GALAP (GALAP (Galium) [6]; Rate 0.0630 kg/ha): 9.0 | Postemergence herbicidal rating CHEAL ([7]; Rate 0.0158 kg/ha): 9.0 | Postemergence herbicidal rating CHEAL ([7]; Rate 0.0315 kg/ha): 9.0 | Postemergence herbicidal rating CHEAL ([7]; Rate 0.0630 kg/ha): 9.0 | Herbicidal rating CYPSE (CYPSE (Flatsedge) [8]; 0.0625 kg/ha): 0.0 | Herbicidal rating CYPSE (CYPSE (Flatsedge) [8]; 0.1250 kg/ha): 0.0 | Herbicidal rating CYPSE (CYPSE (Flatsedge) [8]; 0.2500 kg/ha): 0.0 | Postemergence herbicidal rating CASOB (CASOB (Sicklepod) [9]; Rate 0.0158 kg/ha): 2.0 | Postemergence herbicidal rating CASOB (CASOB (Sicklepod) [9]; Rate 0.0315 kg/ha): 2.0 | Postemergence herbicidal rating CASOB (CASOB (Sicklepod) [9]; Rate 0.0630 kg/ha): 7.0
